From patent publication US9796768B2, “Peptide inhibitors of sodium channels” (The University of North Carolina at Chapel Hill, priority 2014, dated 2017)
Entries after “also recorded” stand apart in the source; their conditions may differ. Where two headings read alike, the source gives them in different places. Non-standard residues stand in square brackets, D forms with d. Residues, ends and D or L forms follow the SMILES beside them. No end group written: not given here. Nle = CCCC[C@H](N)C(=O)O

What was measured:
ENaC [1] = target: T1, ENaC (Homo sapiens, UniProt P51168); test: Airway surface liquid (ASL) height in human bronchial epithelial cultures by XZ-confocal microscopy (ENaC-led fluid absorption); type: cell-based; conditions: for efficacy in ASL height dose response relative to S18: dose responses in airway cultures (FIGS. 3A-3B); for potency in ASL height dose response relative to S18: dose responses in airway cultures (FIGS. 3A-3B, 4); for activity on inhibition of ENaC / preservation of ASL height, compared with S18: peptides added mucosally to HBECs at 30 μM, ASL height measured 3 h later (FIG. 2)
T1 construct: endogenous in cells; host or cells: primary human bronchial epithelial cultures (HBECs) at air-liquid interface
T1 sequence (P37088 whole entry partner): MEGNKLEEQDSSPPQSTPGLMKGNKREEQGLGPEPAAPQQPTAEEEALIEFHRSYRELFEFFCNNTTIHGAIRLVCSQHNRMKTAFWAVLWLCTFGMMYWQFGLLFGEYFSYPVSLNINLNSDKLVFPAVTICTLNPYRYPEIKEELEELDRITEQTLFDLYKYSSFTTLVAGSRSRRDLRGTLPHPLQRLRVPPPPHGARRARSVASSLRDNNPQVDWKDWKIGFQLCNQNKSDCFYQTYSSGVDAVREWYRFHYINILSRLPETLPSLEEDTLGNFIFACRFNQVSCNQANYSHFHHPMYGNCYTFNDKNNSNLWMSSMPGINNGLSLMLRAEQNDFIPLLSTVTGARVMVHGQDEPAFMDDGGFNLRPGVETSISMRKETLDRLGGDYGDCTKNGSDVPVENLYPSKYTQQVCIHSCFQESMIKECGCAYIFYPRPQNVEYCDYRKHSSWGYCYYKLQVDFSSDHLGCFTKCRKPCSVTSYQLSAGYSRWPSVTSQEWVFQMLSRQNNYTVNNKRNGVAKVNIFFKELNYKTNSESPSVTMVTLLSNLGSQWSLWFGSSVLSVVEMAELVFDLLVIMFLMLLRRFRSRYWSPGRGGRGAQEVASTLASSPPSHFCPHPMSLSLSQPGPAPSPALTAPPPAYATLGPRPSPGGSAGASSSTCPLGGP
T1 sequence (P51168 whole entry): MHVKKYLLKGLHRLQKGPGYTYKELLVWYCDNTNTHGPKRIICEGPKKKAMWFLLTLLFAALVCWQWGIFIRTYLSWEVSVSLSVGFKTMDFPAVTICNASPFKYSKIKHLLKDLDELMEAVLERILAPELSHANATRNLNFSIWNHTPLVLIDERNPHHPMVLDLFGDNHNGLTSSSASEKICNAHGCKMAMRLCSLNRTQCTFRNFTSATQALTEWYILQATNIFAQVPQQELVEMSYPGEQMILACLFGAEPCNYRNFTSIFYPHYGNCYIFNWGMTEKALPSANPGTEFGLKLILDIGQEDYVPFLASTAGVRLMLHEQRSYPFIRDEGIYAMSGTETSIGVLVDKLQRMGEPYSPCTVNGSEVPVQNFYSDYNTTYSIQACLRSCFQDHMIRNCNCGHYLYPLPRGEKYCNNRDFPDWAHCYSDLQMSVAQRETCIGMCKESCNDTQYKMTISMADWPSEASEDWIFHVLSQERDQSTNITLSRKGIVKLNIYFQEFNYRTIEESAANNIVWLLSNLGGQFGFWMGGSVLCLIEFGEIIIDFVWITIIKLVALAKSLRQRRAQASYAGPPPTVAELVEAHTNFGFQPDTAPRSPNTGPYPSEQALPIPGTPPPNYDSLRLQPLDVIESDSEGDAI
T1 sequence (P51170 whole entry partner): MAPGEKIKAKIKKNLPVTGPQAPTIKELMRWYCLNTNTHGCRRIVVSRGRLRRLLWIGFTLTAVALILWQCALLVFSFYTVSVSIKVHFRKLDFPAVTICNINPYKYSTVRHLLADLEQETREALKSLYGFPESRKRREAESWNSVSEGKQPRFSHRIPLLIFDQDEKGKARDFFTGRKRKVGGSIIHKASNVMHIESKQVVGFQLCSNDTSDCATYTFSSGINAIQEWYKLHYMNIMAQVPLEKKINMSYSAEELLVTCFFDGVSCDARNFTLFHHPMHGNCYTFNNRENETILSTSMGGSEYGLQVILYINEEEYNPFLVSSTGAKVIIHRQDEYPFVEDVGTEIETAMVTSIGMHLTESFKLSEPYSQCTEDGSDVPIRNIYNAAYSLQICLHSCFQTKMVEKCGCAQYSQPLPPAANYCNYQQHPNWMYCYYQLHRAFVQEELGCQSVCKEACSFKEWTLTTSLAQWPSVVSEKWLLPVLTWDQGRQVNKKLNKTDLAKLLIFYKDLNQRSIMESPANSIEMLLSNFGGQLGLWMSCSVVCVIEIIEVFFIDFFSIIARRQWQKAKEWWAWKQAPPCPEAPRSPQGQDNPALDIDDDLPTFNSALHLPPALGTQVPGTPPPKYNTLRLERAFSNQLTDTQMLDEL
Source text: Cells were harvested by enzymatic digestion from human bronchial tissue as previously described under a protocol approved by the UNC School of Medicine IRB (Tarran et al., J. Gen. Physiol. 127:591 (2006)). Human excess donor lungs and excised recipient lungs were obtained at the time of lung transplantation from portions of main stem or […] bronchi and cells were harvested by enzymatic digestion. All preparations were maintained at an air-liquid interface in a modified bronchial epithelial medium and used 2-5 weeks after seeding on 12 mm T-Clear inserts (Corning Costar) coated with human placental type VI collagen (Sigma). Phosphate buffered saline (PBS) was used for washing human bronchial epithelial culture mucosal surfaces.
To label airway surface liquid, Ringer containing Texas Red-dextran (2 mg/ml; Invitrogen) was added to human bronchial epithelial culture mucosal surfaces. Perfluorocarbon was added mucosally to prevent evaporation of the airway surface liquid and the culture placed in a chamber containing 100 μl Ringer on the stage of a Leica SP8 confocal microscope with a 63× glycerol immersion objective. 10 points per culture were scanned and an average airway surface liquid height determined. For confocal microscopy human bronchial epithelial cultures were bathed serosally in a modified Ringer solution containing (mM): 116 NaCl, 10 NaHCO3, 5.1 KCl, 1.2 CaCl2, 1.2 MgCl2, 20 TES, 10 glucose, pH 7.4). At all other times, human bronchial epithelial cultures were maintained in a modified BEGM growth medium which contained 24 mM NaHCO3 gassed with 5% CO2. Perfluorocarbon (FC-77) was obtained from 3M and had no effect on ASL height as previously reported.
D-alanines are noted as lowercase a. All n=6-9. Data are shown as mean±SEM.

ENaC [2] = target: T1, ENaC; conditions: previously demonstrated (Hobbs et al., 2013); cited from earlier work
Heat stability = type: physicochemical
βENaC-Tg mice = type: in vivo
Source text: Like CF patients, βENaC-Tg mice are disease free at birth, but soon develop obstructive lung disease (Zhou, Z., et al. Am J Respir Crit Care Med 178, 1245-1256 (2008)). C57BL:FVB and C57BL:C3H mixed strains have 90% and 50% mortality, respectively, and the reproducibility of the disease on these backgrounds is sufficiently high that reliable data are produced with n of about 8-10 animals/group. Furthermore, the βENaC-Tg mouse responds to therapeutic interventions in a fashion similar to CF/COPD in humans, and the development of lung disease can be prevented following inhibition of lung disease at birth (Livraghi, A., et al. J Immunol 182, 4357-4367 (2009)). S18-derived peptides or vehicle were dosed one to three times a day by intranasal instillation (1 μl/g body weight) for 14 days in parallel cohorts of mice. Mice were weighed daily and, if a diuretic effect was found, the volume excreted was replaced by sub-cutaneous injections of sterile saline. At the end of the treatment, mice were sacrificed for phenotypic analysis.

[3] = βENaC-Tg C57BL:C3H mice, fourteen-day treatment (FIGS. 7C, 7D, 7F)

aaLPVPNleDQTaa [SEQ ID NO:6]
efficacy in ASL height dose response relative to S18 (ENaC [1]): diminished

CCCC[C@H](NC(=O)[C@@H]1CCCN1C(=O)[C@H](CC(C)C)NC(=O)[C@@H](C)NC(=O)[C@@H](C)N)C(=O)N1CCC[C@H]1C(=O)N[C@@H](CC(C)C)C(=O)N[C@@H](CC(=O)O)C(=O)N[C@@H](CCC(N)=O)C(=O)N[C@H](C(=O)N[C@H](C)C(=O)N[C@H](C)C(N)=O)[C@@H](C)O [SEQ ID NO:5, aaLPNlePLDQTaa] (H-[dA][dA]LP[Nle]PLDQT[dA][dA]-NH2; N-terminus assumed)
IC50 (ENaC [1]; additional dose response, fresh batch of airway cells (FIG. 4)): 30 nM | potency in ASL height dose response relative to S18 (ENaC [1]): log-fold increase in potency; also recorded: significant increase in potency; also recorded: increased potency

aaLPVPLDQTLPLNVNPaa ([dA][dA]LPVPLDQTLPLNVNP[dA][dA]-NH2; N-terminus assumed; SMILES CC(C)C[C@H](NC(=O)[C@@H]1CCCN1C(=O)[C@H](CC(C)C)NC(=O)[C@@H](NC(=O)[C@H](CCC(N)=O)NC(=O)[C@H](CC(=O)O)NC(=O)[C@H](CC(C)C)NC(=O)[C@@H]1CCCN1C(=O)[C@@H](NC(=O)[C@@H]1CCCN1C(=O)[C@H](CC(C)C)NC(=O)[C@@H](C)NC(=O)[C@@H](C)N)C(C)C)[C@@H](C)O)C(=O)N[C@@H](CC(N)=O)C(=O)N[C@H](C(=O)N[C@@H](CC(N)=O)C(=O)N1CCC[C@H]1C(=O)N[C@H](C)C(=O)N[C@H](C)C(N)=O)C(C)C) [SEQ ID NO:2, a = D-alanine]
efficacy in ASL height dose response relative to S18 (ENaC [1]): equal potency and efficacy | potency in ASL height dose response relative to S18 (ENaC [1]): equal potency

H-GGLPVPLDQTLPLNVNPA-NH2 [S18]
EC50 of ENaC inhibition (ENaC [2]): sub micromolar range | duration of ENaC inhibition following a single dose (ENaC [2]): up to 24 h | heat stability (Heat stability): heat-stable

aaLPVPLDQTaa ([dA][dA]LPVPLDQT[dA][dA]-NH2; N-terminus assumed; SMILES CC(C)C[C@H](NC(=O)[C@@H]1CCCN1C(=O)[C@@H](NC(=O)[C@@H]1CCCN1C(=O)[C@H](CC(C)C)NC(=O)[C@@H](C)NC(=O)[C@@H](C)N)C(C)C)C(=O)N[C@@H](CC(=O)O)C(=O)N[C@@H](CCC(N)=O)C(=O)N[C@H](C(=O)N[C@H](C)C(=O)N[C@H](C)C(N)=O)[C@@H](C)O) [SEQ ID NO:3, a = D-alanine]
efficacy in ASL height dose response relative to S18 (ENaC [1]): did not affect its potency or efficacy; also recorded: equal potency and efficacy | potency in ASL height dose response relative to S18 (ENaC [1]): identical dose responses; also recorded: equal potency

aaLPVPLDQSaa ([dA][dA]LPVPLDQS[dA][dA]-NH2; N-terminus assumed; SMILES CC(C)C[C@H](NC(=O)[C@@H]1CCCN1C(=O)[C@@H](NC(=O)[C@@H]1CCCN1C(=O)[C@H](CC(C)C)NC(=O)[C@@H](C)NC(=O)[C@@H](C)N)C(C)C)C(=O)N[C@@H](CC(=O)O)C(=O)N[C@@H](CCC(N)=O)C(=O)N[C@@H](CO)C(=O)N[C@H](C)C(=O)N[C@H](C)C(N)=O) [SEQ ID NO:9, a = D-alanine]
potency in ASL height dose response relative to S18 (ENaC [1]): diminished potency

SEQ ID NO:127: NH3-L-P-I-P-L-D-Q-T-NH2 (H-LPIPLDQT-NH2)
percent survival (βENaC-Tg mice; [3]): increased percent survival

H-LPVPLDQT-NH2 [SEQ ID NO:113, LPVPLDQT]
activity on inhibition of ENaC / preservation of ASL height, compared with S18 (ENaC [1]): retained similar activity to 518; also recorded: required for inhibition of ENaC and preservation of ASL height

CC[C@H](C)[C@H](NC(=O)[C@@H]1CCCN1C(=O)[C@H](CC(C)C)NC(=O)[C@@H](C)NC(=O)[C@@H](C)N)C(=O)N1CCC[C@H]1C(=O)N[C@@H](CC(C)C)C(=O)N[C@@H](CC(=O)O)C(=O)N[C@@H](CCC(N)=O)C(=O)N[C@H](C(=O)N[C@H](C)C(=O)N[C@H](C)C(N)=O)[C@@H](C)O [SEQ ID NO:128, aaLPIPLDQTaa] (H-[dA][dA]LPIPLDQT[dA][dA]-NH2)
percent survival (βENaC-Tg mice; [3]): increased percent survival | percent survival (βENaC-Tg mice; βENaC-Tg C57BL:C3H mice, once daily dosing (FIG. 7E left panel)): increased percent survival | percent survival (βENaC-Tg mice; βENaC-Tg C57BL:FVB mice, fourteen-day treatment, inhaled (FIG. 7B)): more effective than inhaled SEQ ID NO:142

DQTLPLNVNP (also: C-terminal amide, amidation at residue 8) [SEQ ID NO:114]
activity on inhibition of ENaC / preservation of ASL height, compared with S18 (ENaC [1]): inactive
